In assay [1] the test system is HEK293T cells expressing CPG2. Put plainly: Prodrug treatment of HEK293T cells expressing CPG2 variants. The assay is classed as cell-based, human. As for the experimental part:
Expression of CPG2 without a signal peptide (CPG2nosigp) was employed as a control. HEK293t cells stably transfected with CPG2 variants were exposed to P-AMS (1 μM) for 48 hours and analyzed by bright field microscopy (FIG. 9A). Cells were exposed to varying concentrations of P-AMS and cell viability was analyzed at 48 hr post treatment (FIG. 9B).

For assay [2], the system named is Human Jurkat T cells. Put plainly: Prodrug activation by purified recombinant CPG2, Jurkat viability. In kind it is cell-based. The settings on record: Jurkat viability at 48 hours. The protocol:
FIG. 4 provides exemplary data showing activation of P-AMS (see FIG. 2) by recombinant CPG2 expressed and purified from E. coli. (A) Human Jurkat T cells were incubated with or without P-AMS in the presence of increasing concentration of purified CPG2. […] (B) Recombinant CPG2 was exposed to various concentrations of glutamated AMS prodrug. Following incubation at 37° C. (0.5, 1, 2, and 4 hr.), the reaction was combined with Amplex® Red (converts free glutamate to a fluorescent species) and fluorescent emission was analyzed using a fluorescence multiwell plate scanner.
The CPG2-pET151 vector was transformed into BL21 star E. coli cells and induced with IPTG. Bacteria were homogenized in a French Press and purified by affinity chromatography over Ni++ beads using standard protocols. Imidazole was exchanged via PBS dialysis and protein was purified via desalting spin columns. The expressed and purified CPG2 was assayed to confirm that the active enzyme was a potent converter of glutamated prodrugs. […] Pro-AMS was activated by recombinant CPG2 in vitro. Human Jurkat T cells were incubated with or without P-AMS in the presence of increasing concentration of purified CPG2. […] (FIG. 4B) Similar enzyme kinetics will be used to assess the characteristics of the enzyme activity for each of the prodrugs similarly. […]

Assay [3] deals with Jurkat T cells. The conditions noted are these: increasing prodrug with CPG2 supernatant, 48 hours.
In assay [4] the test system is SET2 cells. Put plainly: SET2 viability with prodrug plus recombinant enzyme or enzyme-containing supernatant. In kind it is cell-based. The conditions noted are these: SET2, with Beta-lactamase supernatant. As for the experimental part:
Recombinant CPG2 protein was initially synthesized, purified (FIGS. 15A and 15B), and incubated with increasing concentrations of prodrug in a glutamate release assay (FIG. 14C). Mass spectrometry was used to determine that the glutamate moiety was released from all of the glutamate prodrugs.
Cell viability was measured by CellTitre-Glo® luminescence assay.
To determine to respective enzyme output of the Beta-lactamase constructs relative to the previous CPG2 constructs, a quantitative sandwich ELISA was used to determine the concentration (ng/mL) of purified recombinant CPG2, and a quantitative nitrocefin assay was used to determine the concentration (ng/mL) of purified recombinant Beta-lactamase (FIG. 22A). Cell viability was measured by CellTitre-Glo® luminescence in the presence of prodrug (glut-AMS or ceph-AMS) and varying concentrations of purified recombinant CPG2 or Beta-lactamase (FIG. 22B).

As to `NS(=O)(=O)OC[C@H]1O[C@@H](n2cnc3c(NC(=O)N[C@@H](CCC(=O)O)C(=O)O)ncnc32)[C@H](O)[C@@H]1O` [P-AMS, ((9-((2R,3R,4S,5R)-3,4-dihydroxy-5-((sulfamoyloxy)methyl)tetrahydrofuran-2-yl)-9H-purin-6-yl)carbamoyl)-L-glutamic acid], the activation of prodrug result in assay [1] (HEK293T cells expressing CPG intracellularly) was “not activated”. Besides, the cell death entry in assay [1] (stably transfected HEK293T with cell-secreted or transmembrane CPG2, 48 hr) is “significant cell death”. Moreover, in assay [2], the “activation by recombinant CPG2 in vitro” value is given as “activated”. Besides, the cell viability entry in assay [3] is listed as “significant decrease in cell viability”.

For `Nc1ncnc2c1ncn2[C@@H]1O[C@H](COS(=O)(=O)NCC2=C(C(=O)O)N3C(=O)[C@@H](NC(=O)Cc4cccs4)[C@H]3SC2)[C@@H](O)[C@H]1O` [ceph-AMS], in assay [4], the cell viability result was “significant decrease in cell viability”.
